These results are taken from patent US20090182058A1, “Novel Chalcone Derivatives With Antimitotic Activity” (priority 2006, published 2009).

In one data set the test system is K562 cells. In words: Cycle test: blocking in the G2/M phase evaluated by flow cytometry. The format is cell-based, human. To be noted: for G2/M inhibition in %: 24 hours, 10 μM, cells blocked in G2/M phase; for G2/M cycle blocking, dose-response (FIG. 1): concentration of the order of one micromolar. The protocol: THE CYCLE TEST CORRESPONDS TO THE ANALYSIS OF THE BLOCKING IN THE G2/M PHASE OF A LINE OF HUMAN LEUKEMIC CELLS AS EVALUATED BY FLOW CYTOMETRY.
The k562 cells are incubated for 24 hours in the absence or in the presence of compounds according to the invention and/or reference compounds such as vincristine. In a first phase, the compounds are used at a concentration of 10 μM, whereby dose-response type studies may be carried out secondarily. After 24 hours the cells are exposed to propidium iodide, a DNA intercalating agent, and analyzed in flow cytometry. The results are expressed as a percentage of the cells blocked in the G2/M phase of the cell cycle.
(In general: Flow cytometry measures light scatter and fluorescence of single cells or particles in a stream.)

For a further data set, the system named is SW48. In words: MTT test (in vitro cytotoxicity). The format is cell-based. To be noted: Homo sapiens, 72 hours. The protocol: (§1) The MMT test is a metabolic test used for evaluating the inhibition of proliferation of tumoral lines by a compound according to the invention. Several representative tumoral lines of different tumoral types such as breast cancer, colon cancer, otorhinolaryngological tumors, lung cancer, are incubated in a 96-well plate at variable concentrations of a compound according to the invention, for 72 hours and MTT is then added for a period of 1 hour. The MTT is a substrate of mitochondrial enzymes which is degraded in insoluble formazan blue. The crystals are then re-solubilized in isopropanol-HCl 0.1N and the plates are analyzed on an ELISA plate reader. Relative survival is calculated relatively to cells which have not been exposed to the compound according to the invention. The IC50 or inhibiting concentration 50 is the concentration value of the investigated compound according to the invention which induces a 50% reduction of proliferation relatively to the control.
On the technique in general: Formazan colour is commonly taken as a measure of viable cells.

In the next data set the test system is CEM. As to the kind of experiment: MTT test (in vitro cytotoxicity). Conditions: Homo sapiens, CCRF-CEM, 72 hours. Format: cell-based. The protocol:
as §1

The next data set concerns N2A. As to the kind of experiment: MTT test (in vitro cytotoxicity). Format: cell-based. To be noted: Mus musculus, 72 hours. The protocol: as §1
In another data set the test system is RL. As to the kind of experiment: MTT test (in vitro cytotoxicity). The format is cell-based. To be noted: Homo sapiens, 72 hours. How it is done: as §1
For the next data set, the system named is MCF7. As to the kind of experiment: MTT test (in vitro cytotoxicity). Format: cell-based. To be noted: Homo sapiens, 72 hours. The protocol:
as §1

A further data set has as its system K562. As to the kind of experiment: MTT test (in vitro cytotoxicity). Format: cell-based. To be noted: Homo sapiens, 72 hours. How it is done:
as §1

For the next data set, the system named is HCT 116. As to the kind of experiment: MTT test (in vitro cytotoxicity). Format: cell-based. To be noted: Homo sapiens, 72 hours. The protocol:
as §1

The test system of another data set is HNO 150. In words: MTT test (in vitro cytotoxicity). Format: cell-based. To be noted: 72 hours. The protocol:
as §1

For the next data set, the system named is Messa. As to the kind of experiment: MTT test (in vitro cytotoxicity). Conditions: Homo sapiens, MES-SA, 72 hours. Format: cell-based. The protocol: as §1
A further data set relates to L1210. As to the kind of experiment: MTT test (in vitro cytotoxicity). To be noted: Mus musculus, 72 hours. Format: cell-based. The protocol: as §1
The next data set has as its system NIH 3T3. In words: MTT test (in vitro cytotoxicity). To be noted: Mus musculus, NIH3T3, 72 hours. The format is cell-based. The protocol: as §1

The structures appear in SMILES notation.

Turning to `COc1cccc(OC)c1/C=C/C(=O)c1c(OC)cccc1OC` [Compound A, reference compound], in the data set on K562 cells, the “G2/M inhibition in %” value is listed as 78%. In the data set on K562 cells, the “G2/M cycle blocking, dose-response (FIG. 1)” value (“G2/M cycle blocking” for short) is given as “no activity”. Further, the IC50 (in general, the point on the concentration scale where inhibition reaches its midpoint) in the data set on SW48 was 10 µM; with CEM it was 6 µM; in the data set with N2A, 55 µM; with RL, 40 µM; in the data set with MCF7, 75 µM; in the data set on K562, 80 µM. Moreover, the IC50 with HCT 116 came out at 9 µM; in the data set with HNO 150 it was 62 µM; with Messa it was 10 µM; in the data set with L1210, 34 µM; in the data set with NIH 3T3 it was 60 µM.
For the molecule `COc1cc(OC)c(/C=C/C(=O)c2c(OC)cccc2OC)c(OC)c1` [Example 1, 2,2′,4,6,6′-pentamethoxychalcone], the “G2/M inhibition in %” value in the data set with K562 cells was 84%. The “G2/M cycle blocking” value with K562 cells is “significant G2/M cycle blocking”. Besides, the IC50 with SW48 worked out at 0.25 µM; in the data set on CEM, 0.65 µM; in the data set with N2A, 2.2 µM; in the data set with RL, 0.8 µM; in the data set with MCF7, 60 µM; with K562 it was 50 µM. Besides, the IC50 in the data set with HCT 116 is 0.45 µM; with HNO 150, 1.3 µM; in the data set on Messa, 1 µM; with L1210, 7 µM; with NIH 3T3, 30 µM.
Regarding `COc1cc(OC)c(/C=C/C(=O)c2c(OC)cc(OC)cc2OC)c(OC)c1` [Example 2, 2,2′,4,4′,6,6′-hexamethoxychalcone], the melting point (commonly the temperature of the solid-liquid transition) was found to be 150 °C. For the same molecule, in the data set with K562 cells, the “G2/M inhibition in %” value was 86% and the “G2/M cycle blocking” value was “significant G2/M cycle blocking”. The molecule also registered an IC50 with SW48 of 0.8 µM. The molecule also registered an IC50 in the data set with CEM of 1.9 µM. In the data set with N2A, this molecule returned a 50% inhibitory concentration (IC50) of 4 µM. Moreover, the 50% inhibitory concentration (IC50) in the data set with RL came to 0.9 µM. Also, the half-inhibitory concentration (IC50) in the data set on MCF7 stood at 52 µM. The molecule further had a half-maximal inhibitory concentration (IC50) in the data set with K562 of 50 µM. The same molecule yielded an IC50 in the data set with HCT 116 of 1 µM. The molecule further showed an IC50 in the data set with HNO 150 of 10 µM. Moreover, half-maximal inhibition with Messa (IC50) was put at 2.2 µM. In the data set with L1210, this molecule registered an IC50 of 8.5 µM. In the data set with NIH 3T3, half-maximal inhibition (IC50) required 30 µM.
Turning to `COc1ccc(C(=O)/C=C/c2c(OC)cc(OC)cc2OC)c(OC)c1` [Example 3, 2,2′,4,4′,6-pentamethoxychalcone], the melting point came out at 162 °C. Further, in the data set with K562 cells, the “G2/M inhibition in %” value is 86%.
The molecule `CCOc1cccc(OCC)c1C(=O)/C=C/c1c(OC)cc(OC)cc1OC` [Example 7, 2′,6′-diethoxy-2,4,6-trimethoxychalcone] returned a melting point of 102 °C.
The same measure, in the same setting: for `CCOc1cc(OCC)c(/C=C/C(=O)c2c(OC)cccc2OC)c(OCC)c1` [Example 8, 2′,6′-dimethoxy-2,4,6-triethoxychalcone] the value was 154 °C; for `COc1cc(OC)c(/C=C/C(=O)c2c(OC)cc(N)cc2OC)c(OC)c1` [Example 9, 4′-amino-2,2′,4,6,6′-pentamethoxychalcone], 188 °C; for `CCOc1cc(OCC)c(/C=C/C(=O)c2c(OCC)cc(OCC)cc2OCC)c(OCC)c1` [Example 10, 2,2′,4,4′,6,6′-hexaethoxychalcone], 160 °C.
`COc1ccc(/C=C/C(=O)c2c(OC)cccc2OC)c(OC)c1OC` [Example 11, 2,2′,3,4,6′-pentamethoxychalcone] returned a melting point of 129 °C.
With `COc1cc(OC)c(OC)cc1/C=C/C(=O)c1c(OC)cccc1OC` [Example 12, 2,2′,4,5,6′-pentamethoxychalcone], the melting point stood at 143 °C.
In the case of `COc1cc(/C=C/C(=O)c2c(OC)cccc2OC)cc(OC)c1OC` [Example 13, 2′,3,4,5,6′-pentamethoxychalcone], the melting point was 136 °C.
The molecule `COc1cccc(OC)c1C(=O)/C=C/c1c(OC)c(F)c(OC)c(F)c1OC` [Example 14, 3,5-difluoro-2,2′,4,6,6′-pentamethoxychalcone] returned a melting point of 108 °C.
On the same count and under the same terms, with `COc1cccc(OC)c1C(=O)/C=C/c1c(C)cc(C)cc1C` [Example 15, 2′,6′-dimethoxy-2,4,6-trimethylchalcone] the figure was 126 °C; with `COc1ccc(/C=C/C(=O)c2c(OC)cc(OC)cc2OC)c(OC)c1` [Example 16, 2,2′,4,4′,6′-pentamethoxychalcone], 105 °C.
The same measure, in the same setting: for `COc1cc(OC)c(C(=O)/C=C/c2c(OC)cccc2OC)c(OC)c1` [Example 18, 2,2′,4′,6,6′-pentamethoxychalcone] the value was 164 °C.
`COc1ccc(C(=O)/C=C/c2cc(OC)c(OC)cc2OC)c(O)c1` [Example 19, 2′-hydroxy-2,4,4′,5-tetramethoxychalcone] returned a melting point of 170 °C.
As for `COc1ccc(C(=O)/C=C/c2c(OC)cc(OC)cc2OC)c(O)c1` [Example 20, 2′-hydroxy-2,4,4′,6-tetramethoxychalcone], the melting point is 167 °C.
In turn, `COc1ccc(C(=O)/C=C/c2cc(OC)c(OC)c(OC)c2)c(O)c1` [Example 21, 2′-hydroxy-3,4,4′,5-tetramethoxychalcone] gave a melting point of 110 °C.
In turn, `COc1ccc(C(=O)/C=C/c2ccc(OC)c(OC)c2OC)c(O)c1` [Example 22, 2′-hydroxy-2,3,4,4′-tetramethoxychalcone] gave a melting point of 152 °C.
